ChEMBL document CHEMBL3044818, “Fungicide resistance status in French populations of the wheat eyespot fungi Oculimacula acuformis and Oculimacula yallundae” (Pest Manag Sci, 2013)
≈ marks a conversion by molar mass, not a printed value.

Legend:
[1] = test system: Oculimacula yallundae; assay: Resistance index, ratio of EC50 for sterol 14alpha-demethylation inhibitor-resistant Oculimacula yallundae TriR2 to EC50 for wild type Oculimacula yallundae TriS by germ tube elongation assay; type: functional
[2] = Selectivity index, ratio of EC50 for Oculimacula acuformis to EC50 for Oculimacula yallundae by germ tube elongation inhibition assay; type: functional
[3] = test system: Oculimacula yallundae; assay: Fungicidal activity against Oculimacula yallundae assessed as inhibition of mycelial growth in presence of 5 g sodium succinate incubated at 19 degC in dark for 4 weeks; type: functional, organism-based; details: 672 h
[4] = test system: Oculimacula yallundae; assay: Resistance index, ratio of EC50 for sterol 14alpha-demethylation inhibitor-resistant Oculimacula yallundae MDR to EC50 for wild type Oculimacula yallundae TriS by mycelial growth inhibition assay; type: functional
[5] = test system: Oculimacula acuformis; assay: Fungicidal activity against Oculimacula acuformis assessed as inhibition of germ tube elongation incubated at 19 degC in dark for 48 hr; type: functional, organism-based
[6] = Selectivity index, ratio of EC50 for Oculimacula acuformis to EC50 for Oculimacula yallundae in presence of 10 g glucose by mycelial growth inhibition assay; type: functional
[7] = test system: Oculimacula yallundae; assay: Resistance index, ratio of EC50 for sterol 14alpha-demethylation inhibitor-resistant Oculimacula yallundae MDR to EC50 for sterol 14alpha-demethylation inhibitor-resistant Oculimacula yallundae TriR1 by germ tube elongation assay; type: functional
[8] = test system: Oculimacula yallundae; assay: Resistance index, ratio of EC50 for sterol 14alpha-demethylation inhibitor-resistant Oculimacula yallundae TriR1 to EC50 for wild type Oculimacula yallundae TriS by mycelial growth inhibition assay; type: functional
[9] = test system: Oculimacula yallundae; assay: Resistance index, ratio of EC50 for sterol 14alpha-demethylation inhibitor-resistant Oculimacula yallundae TriR1 to EC50 for wild type Oculimacula yallundae TriS by germ tube elongation assay; type: functional
[10] = test system: Oculimacula yallundae; assay: Resistance index, ratio of EC50 for sterol 14alpha-demethylation inhibitor-resistant Oculimacula yallundae TriR2 to EC50 for wild type Oculimacula yallundae TriS by mycelial growth inhibition assay; type: functional
[11] = test system: Oculimacula yallundae; assay: Resistance index, ratio of EC50 for sterol 14alpha-demethylation inhibitor-resistant Oculimacula yallundae TriR2 to EC50 for sterol 14alpha-demethylation inhibitor-resistant Oculimacula yallundae TriR1 by mycelial growth inhibition assay; type: functional
[12] = test system: Oculimacula yallundae; assay: Fungicidal activity against Oculimacula yallundae assessed as inhibition of germ tube elongation incubated at 19 degC in dark for 48 hr; type: functional, organism-based
[13] = test system: Oculimacula yallundae; assay: Resistance index, ratio of EC50 for sterol 14alpha-demethylation inhibitor-resistant Oculimacula yallundae MDR to EC50 for sterol 14alpha-demethylation inhibitor-resistant Oculimacula yallundae TriR1 by mycelial growth inhibition assay; type: functional
[14] = test system: Oculimacula acuformis; assay: Fungicidal activity against Oculimacula acuformis assessed as inhibition of mycelial growth in presence of 10 g glucose incubated at 19 degC in dark for 4 weeks; type: functional, organism-based; details: 672 h
[15] = test system: Oculimacula yallundae; assay: Resistance index, ratio of EC50 for sterol 14alpha-demethylation inhibitor-resistant Oculimacula yallundae MDR to EC50 for wild type Oculimacula yallundae TriS by germ tube elongation assay; type: functional
[16] = Selectivity index, ratio of EC50 for Oculimacula acuformis to EC50 for Oculimacula yallundae in presence of 5 g sodium succinate by mycelial growth inhibition assay; type: functional
[17] = test system: Oculimacula acuformis; assay: Fungicidal activity against Oculimacula acuformis assessed as inhibition of mycelial growth in presence of 5 g sodium succinate incubated at 19 degC in dark for 4 weeks; type: functional, organism-based; details: 672 h
[18] = test system: Oculimacula yallundae; assay: Fungicidal activity against Oculimacula yallundae assessed as inhibition of mycelial growth in presence of 10 g glucose incubated at 19 degC in dark for 4 weeks; type: functional, organism-based; details: 672 h
[19] = test system: Oculimacula yallundae; assay: Resistance index, ratio of EC50 for sterol 14alpha-demethylation inhibitor-resistant Oculimacula yallundae TriR2 to EC50 for sterol 14alpha-demethylation inhibitor-resistant Oculimacula yallundae TriR1 by germ tube elongation assay; type: functional
[20] = test system: Oculimacula yallundae; assay: Resistance index, ratio of EC50 for prochloraz-resistant Oculimacula yallundae isolate ProR2 to EC50 for prochloraz-susceptible Oculimacula yallundae isolate ProS by mycelial growth inhibition assay; type: functional
[21] = test system: Oculimacula yallundae; assay: Fungicidal activity against prochloraz-susceptible Oculimacula yallundae isolate ProS assessed as inhibition of germ tube elongation incubated at 19 degC in dark for 48 hr; type: functional, organism-based
[22] = test system: Oculimacula yallundae; assay: Resistance index, ratio of EC50 for prochloraz-resistant Oculimacula yallundae isolate ProR1 to EC50 for prochloraz-susceptible Oculimacula yallundae isolate ProS by mycelial growth inhibition assay; type: functional
[23] = test system: Oculimacula yallundae; assay: Resistance index, ratio of EC50 for prochloraz-resistant Oculimacula yallundae isolate ProR2 to EC50 for prochloraz-susceptible Oculimacula yallundae isolate ProS by germ tube elongation inhibition assay; type: functional
[24] = test system: Oculimacula yallundae; assay: Resistance index, ratio of EC50 for prochloraz-resistant Oculimacula yallundae isolate ProR1 to EC50 for prochloraz-susceptible Oculimacula yallundae isolate ProS by germ tube elongation inhibition assay; type: functional
[25] = test system: Oculimacula yallundae; assay: Fungicidal activity against prochloraz-susceptible Oculimacula yallundae isolate ProS assessed as inhibition of mycelial growth in presence of 10 g glucose incubated at 19 degC in dark for 4 weeks; type: functional, organism-based; details: 672 h

SMILES | Ratio EC50 [1] | Ratio EC50 [2] | Ratio EC50 [4] | EC50 [5] [mg/L] | Ratio EC50 [6] | Ratio EC50 [7] | Ratio EC50 [8] | Ratio EC50 [9] | Ratio EC50 [10] | Ratio EC50 [11] | EC50 [12] [mg/L] | Ratio EC50 [13] | EC50 [14] [mg/L] | Ratio EC50 [15] | EC50 [18] [mg/L] | Ratio EC50 [19] | other results
O=C(Nc1ccccc1-c1ccc(Cl)cc1)c1cccnc1Cl [BOSCALID] | 1.3 | 0.8 | 7.5 | 0.025 (≈ 0.0728 µM) | 0.08 | 4.5 | 0.8 | 1.1 | 1 | 1.3 | 0.03 (≈ 0.0874 µM) | 10 | 0.3 | 5 | 0.4 | 1.2 | EC50 [3]: 5 mg/L; Ratio EC50 [16]: 0.06; EC50 [17]: 0.3 mg/L
OC(Cc1ccccc1Cl)(Cn1nc[nH]c1=S)C1(Cl)CC1 (stereo unspecified) [PROTHIOCONAZOLE] | 1.3 | 0.8 | 4.5 | 0.06 (≈ 0.174 µM) | 1.3 | 30 | 2.5 | 1.3 | 2 | 0.8 | 0.08 (≈ 0.232 µM) | 1.8 | 0.5 | 38 | 0.4 | 1 | Ratio EC50 [20]: 2.4; EC50 [21]: 0.06 mg/L (≈ 0.174 µM); Ratio EC50 [22]: 1.6; Ratio EC50 [23]: 1.5; Ratio EC50 [24]: 1.2; EC50 [25]: 0.5 mg/L
